Data from patent US20020137929A1, “1 - (3-heterocyclylphenyl) isothiourea, -isourea, -guanidine and -amidine herbicidal agents” (Intellectual Property Department, BASF Aktiengesellschaft, priority 1998, published 2002).

Key:
ZEAMX (Corn, Field) = assay: Preemergence herbicidal evaluation; type: in vivo, Zea mays; conditions: rated 4-5 weeks after treatment
Outline: (§1)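 Test compound, dissolved in aqueous acetone, was sprayed over planted soil cups at an equivalent of about 0.0156 to 0.500 kg/ha; seeds had been mixed with potting soil. Greenhouse growth followed, with visual 0-9 scoring of injury at four to five weeks.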

SETVI (Foxtail, Green) = assay: Postemergence herbicidal evaluation; type: in vivo, Setaria viridis; conditions: postemergence
Outline: (§2)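 Two-week-old seedlings sprayed with compound in 50/50 acetone/water plus 0.5% TWEEN 20, at about 0.0156 to 0.500 kg/ha, nozzle at 40 psi. Kept in greenhouse; rated visually 4-5 weeks after treatment on a 0-9 scale versus control, repeat tests averaged.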

CYPIR (Rice Flatsedge) = assay: Preemergence weed control under flooded paddy conditions; type: in vivo, Cyperus iria; conditions: rated 3-4 weeks after treatment
Outline: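 Ratings on a 0-9 visual scale cover stand, vigor, malformation, size, chlorosis and overall appearance relative to a control, taken three to four weeks post-treatment. Application was into flood water over freshly sown silt loam at roughly 0.0313 to 0.500 kg/ha.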

ECHCG (Barnyardgrass) = assay: Postemergence herbicidal evaluation; type: in vivo, Echinochloa crus-galli; conditions: postemergence
Outline: as §2

GALAP (Galium) [1] = assay: Preemergence herbicidal evaluation; type: in vivo, Galium aparine; conditions: rated 4-5 weeks after treatment
Outline: as §1

[2] = system: GLXMAW (Soybean, Williams); assay: Postemergence herbicidal evaluation; type: in vivo, Glycine max, (L.) Merr. cv Williams; conditions: postemergence
Outline: as §2

GALAP (Galium) [3] = assay: Postemergence herbicidal evaluation; type: in vivo, Galium aparine; conditions: postemergence
Outline: as §2

[4] = system: SAGPY (Arrowhead (Pygmaea)); assay: Preemergence weed control under flooded paddy conditions; type: in vivo, Sagittaria pygmaea; conditions: rated 3-4 weeks after treatment
Outline: (§3)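 Silt loam, seeds in top 0.5 cm; flood held 1.5-3 cm; test cpd as acetone/water 50/50 into flood water, ~0.0313-0.500 kg/ha a.i.; greenhouse 3-4 wk; visual 0-9 score vs control.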

CASOB (Sicklepod) [5] = assay: Preemergence herbicidal evaluation; type: in vivo, Cassia obtusifolia; conditions: rated 4-5 weeks after treatment
Outline: as §1

AMBEL (Ragweed, Common) = assay: Postemergence herbicidal evaluation; type: in vivo, Ambrosia artemisifolia; conditions: postemergence
Outline: as §2

CASOB (Sicklepod) [6] = assay: Postemergence herbicidal evaluation; type: in vivo, Cassia obtusifolia; conditions: postemergence
Outline: as §2

[7] = system: CHEAL (Lambsquarters, Common); assay: Postemergence herbicidal evaluation; type: in vivo, Chenopodium album; conditions: postemergence
Outline: as §2

ORYSAT (Rice, Tebonnet) = assay: Postemergence herbicidal evaluation; type: in vivo, Oryza sativa, (L.) Tebonnet; conditions: postemergence
Outline: as §2

CYPSE (Flatsedge) = assay: Preemergence weed control under flooded paddy conditions; type: in vivo, Cyperus serotinus; conditions: rated 3-4 weeks after treatment
Outline: as §3

## C#CC(C)N1C(=O)CSC1=Nc1cc(-n2c(=O)cc(C(F)(F)F)n(C)c2=O)c(F)cc1Cl (stereo not drawn) [Compound 165, 3-{4-Chloro-2-fluoro-5-{[3-(1-methyl-2-propynyl)-4-oxo-2-thiazolidinylidene]amino}phenyl}-1-methyl-6-(trifluoromethyl)-2,4(1H,3H)-pyrimidinedione]
ZEAMX (Corn, Field); 0.0156 kg/ha
  Preemergence herbicidal rating ZEAMX: 0.0
ZEAMX (Corn, Field); 0.0313 kg/ha
  Preemergence herbicidal rating ZEAMX: 0.0
ZEAMX (Corn, Field); 0.0625 kg/ha
  Preemergence herbicidal rating ZEAMX: 1.0
ZEAMX (Corn, Field); 0.1250 kg/ha
  Preemergence herbicidal rating ZEAMX: 1.0
ZEAMX (Corn, Field); 0.2500 kg/ha
  Preemergence herbicidal rating ZEAMX: 4.0
ZEAMX (Corn, Field); 0.5000 kg/ha
  Preemergence herbicidal rating ZEAMX: 7.0
SETVI (Foxtail, Green); rate 0.0156 kg/ha
  herbicidal rating SETVI: 2.0
SETVI (Foxtail, Green); rate 0.0313 kg/ha
  herbicidal rating SETVI: 6.0
SETVI (Foxtail, Green); rate 0.0625 kg/ha
  herbicidal rating SETVI: 9.0
SETVI (Foxtail, Green); rate 0.1250 kg/ha
  herbicidal rating SETVI: 7.0
CYPIR (Rice Flatsedge); 0.0313 kg/ha
  herbicidal effect rating, CYPIR: 6.0
CYPIR (Rice Flatsedge); 0.0625 kg/ha
  herbicidal effect rating, CYPIR: 7.0
CYPIR (Rice Flatsedge); 0.1250 kg/ha
  herbicidal effect rating, CYPIR: 9.0
CYPIR (Rice Flatsedge); 0.2500 kg/ha
  herbicidal effect rating, CYPIR: 9.0
ECHCG (Barnyardgrass); rate 0.0156 kg/ha
  herbicidal rating ECHCG: 2.0
ECHCG (Barnyardgrass); rate 0.0313 kg/ha
  herbicidal rating ECHCG: 4.0
ECHCG (Barnyardgrass); rate 0.0625 kg/ha
  herbicidal rating ECHCG: 3.0
ECHCG (Barnyardgrass); rate 0.1250 kg/ha
  herbicidal rating ECHCG: 5.0
GALAP (Galium) [1]; 0.0156 kg/ha
  Preemergence herbicidal rating GALAP: 0.0
GALAP (Galium) [1]; 0.0313 kg/ha
  Preemergence herbicidal rating GALAP: 0.0
GALAP (Galium) [1]; 0.0625 kg/ha
  Preemergence herbicidal rating GALAP: 0.0
GALAP (Galium) [1]; 0.1250 kg/ha
  Preemergence herbicidal rating GALAP: 4.0
GALAP (Galium) [1]; 0.2500 kg/ha
  Preemergence herbicidal rating GALAP: 7.0
GALAP (Galium) [1]; 0.5000 kg/ha
  Preemergence herbicidal rating GALAP: 8.0
[2]; rate 0.0156 kg/ha
  herbicidal rating GLXMAW: 5.0
[2]; rate 0.0313 kg/ha
  herbicidal rating GLXMAW: 5.0
[2]; rate 0.0625 kg/ha
  herbicidal rating GLXMAW: 6.5
[2]; rate 0.1250 kg/ha
  herbicidal rating GLXMAW: 7.0
GALAP (Galium) [3]; rate 0.0156 kg/ha
  herbicidal rating GALAP: 0.0
GALAP (Galium) [3]; rate 0.0313 kg/ha
  herbicidal rating GALAP: 1.0
GALAP (Galium) [3]; rate 0.0625 kg/ha
  herbicidal rating GALAP: 4.0
GALAP (Galium) [3]; rate 0.1250 kg/ha
  herbicidal rating GALAP: 5.0
[4]; 0.0313 kg/ha
  herbicidal effect rating, SAGPY: 4.0
[4]; 0.0625 kg/ha
  herbicidal effect rating, SAGPY: 5.0
[4]; 0.1250 kg/ha
  herbicidal effect rating, SAGPY: 4.0
[4]; 0.2500 kg/ha
  herbicidal effect rating, SAGPY: 7.0
CASOB (Sicklepod) [5]; 0.0313 kg/ha
  Preemergence herbicidal rating CASOB: 0.0
CASOB (Sicklepod) [5]; 0.0625 kg/ha
  Preemergence herbicidal rating CASOB: 0.0
CASOB (Sicklepod) [5]; 0.1250 kg/ha
  Preemergence herbicidal rating CASOB: 1.0
CASOB (Sicklepod) [5]; 0.2500 kg/ha
  Preemergence herbicidal rating CASOB: 7.0
CASOB (Sicklepod) [5]; 0.5000 kg/ha
  Preemergence herbicidal rating CASOB: 7.0
AMBEL (Ragweed, Common); rate 0.0156 kg/ha
  herbicidal rating AMBEL: 2.0
AMBEL (Ragweed, Common); rate 0.0313 kg/ha
  herbicidal rating AMBEL: 6.0
AMBEL (Ragweed, Common); rate 0.0625 kg/ha
  herbicidal rating AMBEL: 7.0
AMBEL (Ragweed, Common); rate 0.1250 kg/ha
  herbicidal rating AMBEL: 9.0
CASOB (Sicklepod) [6]; rate 0.0156 kg/ha
  herbicidal rating CASOB: 0.0
CASOB (Sicklepod) [6]; rate 0.0313 kg/ha
  herbicidal rating CASOB: 2.0
CASOB (Sicklepod) [6]; rate 0.0625 kg/ha
  herbicidal rating CASOB: 3.0
CASOB (Sicklepod) [6]; rate 0.1250 kg/ha
  herbicidal rating CASOB: 3.0
[7]; rate 0.0156 kg/ha
  herbicidal rating CHEAL: 5.0
[7]; rate 0.0313 kg/ha
  herbicidal rating CHEAL: 6.0
[7]; rate 0.0625 kg/ha
  herbicidal rating CHEAL: 7.0
[7]; rate 0.1250 kg/ha
  herbicidal rating CHEAL: 9.0
ORYSAT (Rice, Tebonnet); rate 0.0156 kg/ha
  herbicidal rating ORYSAT: 2.0
ORYSAT (Rice, Tebonnet); rate 0.0313 kg/ha
  herbicidal rating ORYSAT: 1.5
ORYSAT (Rice, Tebonnet); rate 0.0625 kg/ha
  herbicidal rating ORYSAT: 3.0
ORYSAT (Rice, Tebonnet); rate 0.1250 kg/ha
  herbicidal rating ORYSAT: 4.0
CYPSE (Flatsedge); 0.0313 kg/ha
  herbicidal effect rating, CYPSE: 0.0
CYPSE (Flatsedge); 0.1250 kg/ha
  herbicidal effect rating, CYPSE: 0.0
CYPSE (Flatsedge); 0.2500 kg/ha
  herbicidal effect rating, CYPSE: 3.0
